{"source": "paper PMC8952364", "about": "“Polyphenols as Inhibitors of Antibiotic Resistant Bacteria—Mechanisms Underlying Rutin Interference with Bacterial Virulence” (Pharmaceuticals, 2022)", "key": {"[1]": {"test_system": "Methicillin resistant S. aureus IBRS MRSA 011", "test": "Antimicrobial microdilution assay (MIC/MBC)", "type": "cell-based, Staphylococcus aureus", "conditions": "Staphylococcus aureus, MRSA", "how_it_was_run": "(§1)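 Broth microdilution with 0.5 McFarland suspension diluted twenty-fold and mixed 1:10 with compound (0.0039–1 mg/mL, from 30% ethanol stocks); 24 h at 37 °C. Triplicate runs.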"}, "P. aeruginosa IBRS P001 [2]": {"test_system": "P. aeruginosa IBRS P001", "test": "Antimicrobial microdilution assay (MIC/MBC)", "type": "cell-based, Pseudomonas aeruginosa", "conditions": "Pseudomonas aeruginosa, IBRSP001; for MIC: read-out: MIC", "how_it_was_run": "as §1"}, "P. aeruginosa MMA83": {"test_system": "P. aeruginosa MMA83", "test": "Antimicrobial microdilution assay (MIC/MBC)", "type": "cell-based, Pseudomonas aeruginosa", "conditions": "Pseudomonas aeruginosa, MMA83", "how_it_was_run": "as §1"}, "P. aeruginosa IBRS P001 [3]": {"test_system": "P. aeruginosa IBRS P001", "test": "Catheter biofilm inhibition model", "type": "cell-based, Pseudomonas aeruginosa", "conditions": "MIC and 0.5 MIC of rutin, 24 h", "protocol": "The method was performed as described previously, with some modifications. Sterile silicon 16-mm Romed catheters (Van Oostveen Medical, Wilnis, The Netherlands) were cut into 1 cm lengths and placed in 24-well plates (Sarstedt, Nümbrecht, Germany). P. aeruginosa IBRS P001 and MRSA in TSB with 2% glucose (Torlak, Belgrade, Serbia) and rutin (0.25–1 MIC) were added for the inhibition assay. After incubation (37 °C, 24 h), the catheters were washed with PBS and transferred to 1.5 mL tubes. PBS was added and tubes were vortexed vigorously. The samples were diluted and seeded onto Plate Count Agar (HiMedia Laboratories, Mumbai, India). After being incubated at 37 °C for 24 h, the CFU (colony forming units) count was determined and the inhibition percentage relative to the untreated control was calculated."}, "P. aeruginosa IBRS P001 [4]": {"test_system": "P. aeruginosa IBRS P001", "test": "Catheter biofilm eradication model (24 h old biofilm)", "type": "cell-based, Pseudomonas aeruginosa", "protocol": "For the catheter biofilm eradication assay, P. aeruginosa and MRSA were incubated in TSB with 2% glucose with 1 cm long catheters in 24-well plates at 37 °C for 24 h. […] Subsequently, the catheters were washed and treated, as described above."}, "[5]": {"test_system": "24 h old P. aeruginosa IBRS P001 biofilms", "test": "Biofilm eradication, MTT assay (cell viability)", "type": "cell-based, Pseudomonas aeruginosa", "protocol": "The impact of rutin on P. aeruginosa IBRS P001 biofilm formation was determined as previously described by estimating the metabolic activity of microbial cells using an MTT assay. […] The supernatants were then ejected and the biofilms washed with PBS. MTT reagent (200 μL, 0.5 mg/mL) was added and the plate was incubated at 37 °C in the dark for 2 h. The resulting dye was dissolved in DMSO and the absorbance was measured at 570 nm in a microtiter plate reader Multiskan™ FC Microplate Photometer, Thermo Scientific™. The inhibition percentage of biofilm cell viability was calculated:%Inhibition = [(A570control − A570sample)/A570control] × 100\nThe bacterial cells were incubated in TSB enriched with 2% glucose in 96-well plates (Sarstedt, Germany) with adhesive bottom at 37 °C for 24 h. After incubation, wells were washed with PBS, and rutin (MBC–4 MBC) in TSB with 2% glucose was added. Incubation continued at 37 °C for another 24 h. The planktonic cells were removed.\nThe assays continued as described above for the crystal violet antibiofilm assay for the measurement of biofilm mass, biofilm MTT assay for the interference with cell viability, Congo red binding assay for estimation of exopolysaccharide production, and eDNA assay."}, "[6]": {"test_system": "P. aeruginosa IBRS P001 protease production", "test": "Protease assay (azocasein)", "type": "cell-based, Pseudomonas aeruginosa", "conditions": "0.25 mg/mL (0.5 MIC), compared to the control", "protocol": "The impact of rutin on the proteolytic activity of P. aeruginosa IBRS P001 was measured using azocasein as a substrate. […] Samples were centrifuged at 9660 g, room temperature, for 10 min (Heraeus biofuge stratos centrifuge, Thermo Electron Corporation, Waltham, MA, USA). Afterwards, the supernatant was mixed with azocasein (2%, SigmaAldrich, Germany) and incubated at 37 °C for 45 min. The reaction was stopped using 10% trichloroacetic acid and centrifuged at 9660× g, RT for 10 min. After centrifugation, the absorbance of the supernatants was measured at 440 nm and protease production in the treated sample calculated compared to the control (100% production)."}, "[7]": {"test_system": "P. aeruginosa IBRS P001 rhamnolipid production", "test": "Rhamnolipid assay", "type": "cell-based, Pseudomonas aeruginosa", "conditions": "0.25 mg/mL (0.5 MIC), compared to the control", "protocol": "Culture supernatants of the previously cultivated P. aeruginosa IBRS P001 strain incubated with rutin 0.250 mg/mL were acidified by using HCl to pH 2.0 [72]. Rhamnolipid production was measured spectrophotometrically at 570 nm by a Plate Reader Infinite 200 pro (MTX Lab Systems, Vienna, VA, USA). A solvent treated culture supernatant was used as a positive control."}, "P. aeruginosa IBRS P001 [8]": {"test_system": "P. aeruginosa IBRS P001", "test": "Membrane permeability assay (nucleotide and protein leakage)", "type": "cell-based, Pseudomonas aeruginosa", "conditions": "rutin MIC; absorbance of released nucleic acids (260 nm) and proteins (280 nm) increased after 60 min", "protocol": "The effect of rutin on membrane permeability (nucleotide and protein leakage) was evaluated as described earlier with some modifications. The culture of P. aeruginosa IBRS P001 and MRSA IBRS MRSA 011 was incubated overnight at 37 °C, washed, and suspended in 10 mM PBS in order to achieve the final density of 10^8 CFU/mL. Bacteria were incubated with rutin at a concentration equal to MIC for time intervals 0, 30, 60, and 90 min. Bacteria incubated with PBS were used as control. After incubation the mixture was filtered through a 0.22 μm pore size filter to remove […]. The optical density of the filtrate was measured at 260 and 280 nm with an Agilent/HP 8453 UV-Visible Spectrophotometer (Agilent Technologies, Santa Clara, CA, USA) at room temperature (25 °C)."}, "[9]": {"conditions": "subcultivation, 24 h at 37 °C, read-out: MBC"}}, "note": "Read-outs that look alike come from different tables or passages of the source."}
{"smiles": "C[C@@H]1O[C@@H](OC[C@H]2O[C@@H](Oc3c(-c4ccc(O)c(O)c4)oc4cc(O)cc(O)c4c3=O)[C@H](O)[C@@H](O)[C@@H]2O)[C@H](O)[C@H](O)[C@H]1O", "note": "[Rutin, rutin]", "values": [{"measurement": "MIC", "setting": "[1]; 37 °C, 24 h, read-out: MIC", "result": 500, "unit": "µg/mL"}, {"measurement": "MBC", "setting": "[1]; [9]", "result": 1000, "unit": "µg/mL"}, {"measurement": "MIC", "setting": "P. aeruginosa IBRS P001 [2]; 37 °C, 24 h", "result": 500, "unit": "µg/mL"}, {"measurement": "MIC", "setting": "P. aeruginosa IBRS P001 [2]; restated in the discussion", "result": 500, "unit": "µg/mL"}, {"measurement": "MBC", "setting": "P. aeruginosa IBRS P001 [2]; [9]", "result": 1000, "unit": "µg/mL"}, {"measurement": "MIC", "setting": "P. aeruginosa MMA83; 37 °C, 24 h, read-out: MIC", "result": 500, "unit": "µg/mL"}, {"measurement": "MBC", "setting": "P. aeruginosa MMA83; [9]", "result": 500, "unit": "µg/mL"}, {"measurement": "biofilm inhibition on catheter", "setting": "P. aeruginosa IBRS P001 [3]", "result": 100, "unit": "%"}, {"measurement": "number of colonies attached to the urinary catheters", "setting": "P. aeruginosa IBRS P001 [3]", "result": 0}, {"measurement": "catheter biofilm eradicated", "setting": "P. aeruginosa IBRS P001 [4]; 2 MBC, 24 h old biofilm", "result": 73.7, "unit": "%"}, {"measurement": "biofilm cells remained viable after the treatment", "setting": "P. aeruginosa IBRS P001 [4]; 24 h old catheter biofilm, concentration not printed (MBC-4MBC tested, probably 4 MBC)", "result": 10.9, "unit": "%"}, {"measurement": "viability at 1000 µg/mL", "setting": "[5]; Pseudomonas aeruginosa, MBC, 1 mg/mL, read-out: viability of cells within the biofilms", "result": 92, "unit": "%"}, {"measurement": "viability of cells within the biofilms", "setting": "[5]; maximal concentration examined (4 MBC)", "result": 55, "unit": "%"}, {"measurement": "decrease of protease production", "setting": "[6]", "result": "more than 50%"}, {"measurement": "decrease of rhamnolipid production", "setting": "[7]", "result": 74.4, "unit": "%"}, {"measurement": "cell membrane integrity, in words", "setting": "P. aeruginosa IBRS P001 [8]", "result": "obstructed P. aeruginosa IBRS P001 cell membrane integrity"}]}
